Measured values reported in patent publication US20260248771A1, “VALBENAZINE, A VMAT2 INHIBITOR, AS A FREE BASE A TOSYLATE OR DITOSYLATE SALT, FOR USE IN THE TREATMENT OF CHOREA ASSOCIATED WITH HUNTINGTON'S DISEASE” (Neurocrine Biosciences, Inc., priority 2022, published 2026).

What was measured:
Format in all cases: in vivo, human
subjects with HD [1] = test: Phase 3 study: EuroQol 5 Dimensions 5 Levels (EQ-5D-5L)
From the text: Exploratory endpoints included: • Wearable movement sensors (in select sites; optional participation) using MC10 Inc., BIOSTAMP® NPOINT® system • Huntington Disease Health Index • Changes from the screening period baseline to each postbaseline study visit (Weeks 2 through 12) in the TMC based on site assessments • Changes from the screening period baseline to maintenance (the average of the Week 10 and Week 12 assessments) in the TMC based on video recording central rater assessments • CGI-C response at Weeks 2 through 10 • PGI-C response at Weeks 2 through 10 • The change from baseline to Weeks 4, 8, and 10 in the Neuro-QoL Upper Extremity Function T-score. • The change from baseline to Weeks 4, 8, and 10 in the Neuro-QoL Lower Extremity Function T-score • CGI-S at Weeks 2 through 12 • PGI-S at Weeks 2 through 12 • SF-36 at Week 12 • HD-HI at Week 10 and Week 12 • EQ-5D-5L at Week 10 and Week 12 • UHDRS scores for motor, behavior, and functional capacity assessment at Weeks 2 through 12 • Other UHDRS scores including functional assessment and independence scale at Week 12 • AS at Week 12 • Change from screening period in physical activity by movement sensors at the Week 10 visit period […]

subjects with HD [2] = test: Phase 3 study: Neuro-QoL Lower Extremity Function T-score
From the text: (§1) As used herein, “Neuro-QoL” is a set of self-report measures that assesses the health-related quality of life (HRQOL) of adults and children with neurological disorders. Neuro-QoL Upper Extremity Function scale measures one's ability across fine motor and activities of daily living involving digital, manual and reach-related function and self-care. Neuro-QoL Lower Extremity Function scale measures one's ability to carry out various activities involving the trunk region and increasing degrees of bodily movement, ambulation, balance or endurance. See, National Institute of Neurological Disorders and Stroke (NINDS). User Manual for the Quality of Life in Neurological Disorders (Neuro-QoL) Measures, Version 2.0, March 2015, which is incorporated herein by reference in its entirety.
(§2) A Phase 3, randomized, double-blind, placebo-controlled study to evaluate the efficacy, safety, and tolerability of once-daily valbenazine in subjects with HD was conducted. The study included a 4-week screening period, an 8-week dose-adjustment period, a 4-week maintenance period, and a final study visit 2 weeks following the final dose of study drug. […]

subjects with HD [3] = test: Phase 3 study: Neuro-QoL Upper Extremity Function T-score
From the text: as §1, §2

subjects with HD [4] = test: Phase 3 study: Anosognosia Scale; conditions: baseline to Week 12; either treatment group
From the text: (§3) Exploratory endpoints included: • Wearable movement sensors (in select sites; optional participation) using MC10 Inc., BIOSTAMP® NPOINT® system • Huntington Disease Health Index • Changes from the screening period baseline to each postbaseline study visit (Weeks 2 through 12) in the TMC based on site assessments • Changes from the screening period baseline to maintenance (the average of the Week 10 and Week 12 assessments) in the TMC based on video recording central rater assessments • CGI-C response at Weeks 2 through 10 • PGI-C response at Weeks 2 through 10 • The change from baseline to Weeks 4, 8, and 10 in the Neuro-QoL Upper Extremity Function T-score. • The change from baseline to Weeks 4, 8, and 10 in the Neuro-QoL Lower Extremity Function T-score • CGI-S at Weeks 2 through 12 • PGI-S at Weeks 2 through 12 • SF-36 at Week 12 • HD-HI at Week 10 and Week 12 • EQ-5D-5L at Week 10 and Week 12 • UHDRS scores for motor, behavior, and functional capacity assessment at Weeks 2 through 12 • Other UHDRS scores including functional assessment and independence scale at Week 12 • AS at Week 12 • Change from screening period in physical activity by movement sensors at the Week 10 visit period

subjects with HD [5] = test: Phase 3 study: safety and tolerability (adverse events)
Method: A Phase 3, randomized, double-blind, placebo-controlled study to evaluate the efficacy, safety, and tolerability of once-daily valbenazine in subjects with HD was conducted. The study included a 4-week screening period, an 8-week dose-adjustment period, a 4-week maintenance period, and a final study visit 2 weeks following the final dose of study drug.
During the dose-adjustment and maintenance periods, the investigator could assess that a dose level is not tolerated if a subject experienced an adverse event (AE) that is (1) deemed associated with the study drug, and (2) of either moderate or severe intensity, or a serious AE.

subjects with HD [6] = test: Phase 3 study: UHDRS functional assessment, independence scale, total functional capacity; conditions: baseline to Week 12; either treatment group
From the text: as §3
The functional capacity portion of the UHDRS consists of 5 items. […]

subjects with HD [7] = test: Phase 3 study: Huntington Disease Health Index (HD-HI); conditions: for HD-HI hand and arm function subscale, change from baseline / HD-HI involuntary movements subscale, change from baseline / HD-HI mobility subscale, change from baseline: valbenazine group
From the text: as §3
The HD-HI includes 13 subscales that measure 13 individual areas of health in patients with HD. Observed values and change from baseline were summarized descriptively for each subscale and the total instrument score by treatment group and visit.

COc1cc2c(cc1OC)[C@H]1C[C@@H](OC(=O)[C@@H](N)C(C)C)[C@H](CC(C)C)CN1CC2 [Valbenazine, (S)-2-amino-3-methyl-butyric acid (2R,3R,11bR)-3-isobutyl-9,10-dimethoxy-1,3,4,6,7,11b-hexahydro-2H-pyrido[2,1-a]isoquinolin-2-yl ester]
EQ-5D-5L health index score and distribution of scores for each dimension, differences between treatment groups (subjects with HD [1]; baseline to Weeks 10 and 12): No notable differences between treatment groups were observed
EQ-5D-5L shift toward worsening in any dimension (subjects with HD [1]; valbenazine group): index score and distribution of scores for each dimension. No shift
Neuro-QoL Lower Extremity Function T Score CFB @ week 12, LS Mean (subjects with HD [2]; valbenazine group): −0.27
Neuro-QoL Lower Extremity Function T Score CFB @ week 12, LS Mean, Difference (subjects with HD [2]; valbenazine vs placebo): −0.88
Neuro-QoL Upper Extremity Function T Score CFB @ week 12, LS Mean (subjects with HD [3]; valbenazine group): −1.58
Neuro-QoL Upper Extremity Function T Score CFB @ week 12, LS Mean, Difference (subjects with HD [3]; valbenazine vs placebo): 1.42
Anosognosia Scale score, changes from baseline (subjects with HD [4]): No clinically meaningful changes were noted from baseline to Week
SAE and AE leading to discontinuation of study treatment (subjects with HD [5]; both treatment groups): comparable rates and low incidence
rates of TEAEs (subjects with HD [5]; both treatment groups): comparable rates of TEAEs in both treatment groups
tolerability (subjects with HD [5]; once-daily administration): well tolerated
somnolence (most commonly reported AE), incidence (subjects with HD [5]; valbenazine group): 15.6%
suicidal behavior or worsening of suicidal ideation (subjects with HD [5]; valbenazine treated subjects): No suicidal behavior or worsening of suicidal ideation was observed
UHDRS functional assessment, independence, and total functional capacity scores, changes from baseline (subjects with HD [6]): No clinically meaningful changes were noted from baseline to Week
HD-HI hand and arm function subscale, change from baseline (subjects with HD [7]; Week 10): −7.154
HD-HI involuntary movements subscale, change from baseline (subjects with HD [7]; Week 10): −12.220
HD-HI mobility subscale, change from baseline (subjects with HD [7]; Week 10): placebo for mobility (Week 10: −6.319 valbenazine vs −4.131
HD-HI involuntary movements subscale, LS mean difference between treatment groups (subjects with HD [7]; Week 12, ANCOVA model): LS mean difference between treatment groups of −6.662 (95%
HD-HI hand and arm function subscale, change from baseline (subjects with HD [7]; Week 12): −7.169
HD-HI involuntary movements subscale, change from baseline (subjects with HD [7]; Week 12): −11.195
HD-HI mobility subscale, change from baseline (subjects with HD [7]; Week 12): placebo; Week 12: −4.208 vs −2.708), involuntary movements (Week
HD-HI total score, changes from baseline (subjects with HD [7]; Weeks 10 and 12): valbenazine group. No meaningful changes in the HD-HI total score
